In patent US20180252712A1, “RECEPTOR FOR NOROVIRUS AND USES THEREOF” (priority 2017, published 2018):

Tests used:
[1] = tested on: MNoV^CW3; experiment: MNoV binding assay to BV2 cells (bound genomes by qPCR); assay type: cell-based, murine norovirus; conditions: wild type or CD300lf-mutant BV2 cells, 1 μg/ml kifunensine
Procedure: MNoV^CW3 quantitiatve PCR (qPCR) was performed as previously described. Briefly, 5 μl of extracted viral RNA was used for cDNA synthesis using random hexamers and ImProm Reverse Transcriptase (Promega, Madison, Wis.) in 20 μl total volume. TaqMan qPCR was performed in triplicate on each sample and standard with forward primer SEQ ID NO:20 (5′ […] 3′), reverse primer SEQ ID NO:21 (5′ GCGCTGCGCCATCACTC 3′), and probe.
MNoV^CW3 binding to BV2 cells was performed for 1 hour at 4° C. in 0.5 ml complete growth media. sCD300lf was incubated with MNoV^CW3 for 30 minutes at room temperature prior to addition to cells. α-CD300lf was incubated with cells for 30 minutes at 4° C. prior to the addition of MNoV^CW3. BV2 cells were used at final concentration of 2×10^6 cells/ml, and MNoV^CW3 was used at a final concentration of 1.6×10^9 copies/ml (2.5×10^6 PFU/ml). Cells were centrifuged at 500 g for 5 min at 4° C. to remove unbound virus. Cells were washed with four 1.0 ml washes with PBS containing 2.5% FBS and 2 mM EDTA. The cell pellet was resuspended in 100 μl PBS, and RNA was extracted with the ZR Viral RNA kit (Zymo Research) according to manufacturer instructions. qPCR was performed as described above. Binding experiments were done in triplicate in each of at least three independent experiments. A condition containing virus but no cells was used to determine assay background.
(§1) To determine the effect of glycans on MNoV binding, parental BV2 cells, ΔCD300lf BV2 clone 1 cells complemented with an empty lentivirus, and ΔCD300lf BV2 clone 1 cells complemented with CD300lf were cultured in the presence of 1 μg/ml of kifunensine (Santa Cruz Biotechnology) for at least 48 hours prior to use. Kifunensine activity was determined by staining cells with FITC-conjugated wheat germ agglutinin (WGA) at 1 μg/ml final concentration (Sigma Aldrich). The reduction in glycosylation was determined by comparing the mean fluorescence intensity (MFI) with and without kifunensine treatment. WGA binding was determined at the time of each binding assay.

[2] = tested on: BV2 cells; experiment: Kifunensine treatment, WGA-FITC staining of cell surface carbohydrates; assay type: cell-based, mouse; conditions: 1 μg/ml kifunensine for at least 48 hours
Procedure: as §1

O=C1N[C@@H]2[C@@H](O)[C@@H](O)[C@H](O)[C@@H](CO)N2C1=O [kifunensine]
MNoV^CW3 binding to kifunensine treated cells [1]: did not significantly alter MNoV^CW3 binding
Cell surface carbohydrates (WGA-FITC binding, MFI) [2]: significantly reduced cell surface carbohydrates
